Common to all, as to experiment: NCI-60 cell line screen, 48 h
In test [1] the test system is 786-0 renal.
The subject of test [2] is EKVX NSCLC.
Test [3] relates to HCT-116 colon.
For test [4], the system named is HL-60(TB) leukemia.
The subject of test [5] is HOP-62 NSCLC.
The test system of test [6] is PC-3 prostate.
The subject of test [7] is SK-MEL-2 melanoma.
Test [8] relates to SK-MEL-28 melanoma.
Test [9] concerns UACC-62 melanoma.
Test [10] concerns A498 renal.

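Grown in 96-well plates, cells were treated for 48 hours with each compound at five concentrations. Insufficient inhibition: endpoint recorded as highest concentration tested. GI50 is the concentration that inhibits growth by half. Definition used: TGI = concentration required for complete inhibition of growth.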

Turning to `Nc1ncnc2c1nnn2C1CCC(CP(=O)(O)O)C1` (stereo not given), the TGI in [1], in [2], in test [3], in [4], in [5] and in test [6] was > 100 µM throughout. Also, the TGI in test [7], in test [8] and in test [9] was > 100 µM in each case.
In the case of `O=C1c2ccccc2-c2c1c1ccccc1c(=O)n2CCN1CCOCC1`, the GI50 in [1] was > 100 µM; in [2] it was 98.8 µM; in test [3], 36 µM; in test [5], > 100 µM; in test [6], > 100 µM; in test [7], > 100 µM. Further, the GI50 is > 100 µM in [8] and 29.4 µM in [9]. Besides, the TGI in [1], in test [2], in test [3], in test [5], in [6] and in test [7] was > 100 µM in each case. For the same molecule, the TGI in test [8] and in test [9] was > 100 µM in each case.
Regarding `N#Cc1c(-c2ccc(Cl)cc2)c2c(n(C3OC(CO)C(O)C(O)C3O)c1=S)CCC2` (stereo not given), the TGI in test [1] was > 100 µM; in test [3] it was 98.4 µM; in test [4], > 100 µM; in test [5], 57 µM; in [6], > 100 µM; in test [7] it was > 100 µM. Besides, the TGI in test [8] was determined as 32.9 µM; in [9], 34 µM.
Take `Cn1cc(C2=C(c3cccc(OCC(O)CO)c3)C(=O)NC2=O)c2ccccc21` (stereo not given): the GI50 in test [1], in [10], in test [3], in [4], in test [5] and in test [6] was > 25 µM in each case. Also, the GI50 in test [7], in test [8] and in [9] was > 25 µM throughout. The TGI in test [1], in test [10], in test [3], in test [4], in test [5] and in test [6] was > 25 µM each time. Also, the TGI in test [7], in test [8] and in [9] was > 25 µM throughout.
`O=[N+]([O-])c1cccc([As]=[As]c2cccc([N+](=O)[O-])c2)c1` (stereo not given): the GI50 in test [1] is 0.0961 µM; in [10], 0.0835 µM; in test [3], 0.0627 µM; in test [5], 0.159 µM; in test [6], 0.147 µM; in test [7] it was 0.13 µM. Besides, the values for the GI50 in test [8] and in [9] were 0.136 µM and 0.0885 µM, respectively. For the same molecule, the TGI in test [1] was 0.222 µM; in test [10] it was 0.231 µM; in test [3], 0.181 µM; in [5] it was 0.301 µM; in test [6], 0.297 µM; in test [7], 0.272 µM. Further, the TGI came out at 0.305 µM in [8] and 0.212 µM in [9].
On to `O=C(Nc1ccc(Cl)c(Cl)c1)O/N=C\c1c(Cl)ccc([N+](=O)[O-])c1Cl`, for which the GI50 in test [1] is 3.96 µM; in test [10] it was 10.6 µM; in test [3] it was 1.49 µM; in [4], 1.18 µM; in [5] it was 3.07 µM; in test [6], 1.58 µM. Besides, the GI50 is 2.34 µM in [7] and 2.1 µM in test [8]. Further, the TGI in test [1] worked out at 13.5 µM; in test [10] it was 22.8 µM; in test [3] it was 3.25 µM; in test [4], 3.13 µM; in [5], 11 µM; in test [6], 3.74 µM. In addition, the TGI in test [7] came to 4.98 µM; in [8], 4.22 µM.
On to `O=C(Nc1cccc(NC(=O)Nc2cc(C(F)(F)F)ccc2Cl)c1)Nc1cc(C(F)(F)F)ccc1Cl`, for which the GI50 was 4.93 µM in test [1]; 1.48 µM in test [10]; 2.41 µM in test [3]; 1.35 µM in [5]; 1.4 µM in test [6]; 2.53 µM in [7]. Further, the GI50 is 2.84 µM in test [8] and 2.35 µM in test [9]. Also, the TGI in [1] is > 100 µM; in [10], 7.63 µM; in test [3], 22.8 µM; in test [5] it was 4.01 µM; in [6], 8.23 µM; in [7] it was 7.33 µM. The values for the TGI in [8] and in test [9] were 15.4 µM and 16.8 µM, respectively.
Turning to `CC1(C)C2C=CC1(C)C1(CC2)OCCO1` (stereo not given), the TGI in [1], in test [10], in test [3], in test [4], in [5] and in [6] was > 100 µM throughout. In addition, the TGI in test [7], in test [8] and in [9] was > 100 µM each time.
With `COc1ccc(/C=C2\S/C(=N/Nc3nc(-c4ccccc4)cs3)NC2=O)cc1OC`, the TGI in test [1] is 93.4 µM; in [2] it was 98.4 µM; in test [3], 41.6 µM; in [4], 22 µM; in test [5], > 100 µM; in test [6] it was 52.6 µM. Also, the TGI was 47.5 µM in test [7], 69.9 µM in test [8] and 74.5 µM in test [9].
`Cc1ccc(S(=O)(=O)Nc2cccc3[nH]c(C(F)(F)F)nc23)cc1`: the GI50 in test [1] was 1.94 µM; in test [10] it was 0.262 µM; in [3], 0.414 µM; in [4], 0.39 µM; in [5] it was 1.21 µM; in [6] it was 0.56 µM. For the same molecule, the GI50 in test [7] was 0.321 µM; in test [8], 0.654 µM; in test [9], 0.62 µM. Further, the TGI in test [1] was 67.3 µM; in test [10], 1.82 µM; in [3] it was > 100 µM; in [4] it was 17.2 µM; in [5] it was 41.8 µM; in test [6], > 68.8 µM. Also, the TGI is 3.54 µM in test [7], > 92.8 µM in test [8] and > 54 µM in test [9].
Take `Nc1[nH]nc2nc(-c3cccs3)cc(C(F)(F)F)c12`: the GI50 in test [1] was > 25 µM; in test [10], > 23.7 µM; in test [3], > 17.9 µM; in test [4] it was > 25 µM; in [5], > 25 µM; in test [6], > 25 µM. Moreover, the GI50 was > 22.3 µM in test [7], > 25 µM in test [8] and > 25 µM in [9]. In addition, the TGI in test [1], in [10], in test [3], in test [4], in [5] and in [6] was > 25 µM each time. In addition, the TGI in [7], in test [8] and in [9] was > 25 µM throughout.
Take `NC(=O)c1c(NC(=O)c2ccc3c(c2)OCO3)sc2c1CCC(=O)C2`: the GI50 in test [1] was 2.19 µM; in test [4], 0.554 µM; in test [5] it was 4.11 µM; in test [6], 0.313 µM; in test [8], 3 µM. For the same molecule, the TGI in [1] is > 100 µM; in test [4], 8.28 µM; in [5], > 100 µM; in [6], > 100 µM; in [8], > 100 µM.
Regarding `CC1=C2C(=CC(C)(C)C2O)C(=O)C(C)(O)C12CC2` (stereo not given), the TGI came to 0.0388 µM in test [1]; 0.0822 µM in [10]; 0.144 µM in test [2]; 0.188 µM in test [3]; 0.0149 µM in test [4]; 0.0447 µM in test [5]. The TGI in test [7] amounted to 0.0283 µM; in [8] it was 0.0865 µM; in test [9] it was 0.0324 µM. Moreover, the GI50 in test [7] was 0.0108 µM.
`CCCOC(=O)N1CCN(/[N+]([O-])=N/Oc2ccc([N+](=O)[O-])cc2[N+](=O)[O-])CC1`: the GI50 in test [1] was 1 µM; in test [2] it was 2.64 µM; in test [3], 0.301 µM; in [4] it was 0.727 µM; in test [5], 2.58 µM; in test [6] it was 4.14 µM. The GI50 in [7] is 2.71 µM; in test [8], 6.04 µM; in [9], 2.26 µM. Further, the TGI in test [1] came out at 2.95 µM; in test [2], 7.79 µM; in [3], 1.17 µM; in test [4], 8.15 µM; in test [5], 6.4 µM; in test [6], 15.1 µM. Moreover, the TGI in test [7] turned out to be 7.78 µM; in [8] it was 39.4 µM; in test [9], 5.59 µM.
Regarding `CN1c2ccccc2N(C)C23N(C)c4ccccc4N(C)C12N(C)c1ccccc1N3C` (stereo not given), the TGI in [1], in test [10], in [2], in test [3], in [4] and in test [5] was > 100 µM throughout. The TGI in [7], in [8] and in test [9] was > 100 µM in each case.

Values taken from PubChem BioAssay (NCI).
